Data: the supplement of paper PMC8967900

Key:
Experiment in all cases: selective drug sensitivity score (sDSS, relative to normal bone marrow) (sDSS (score)); higher = more potent and effective on the cell line relative to normal bone marrow cells
Settings in all cases: 72 h
PF-382 = test system: PF-382
KASUMI-10 = test system: KASUMI-10
CCRF-HSB2 = test system: CCRF-HSB2
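Further: ALL cell lines in 384-well plates, five doses spanning 10,000-fold, each plate scaled between vehicle and 100 µmol/L benzalkonium chloride controls, sDSS an adapted area-under-curve metric.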

| SMILES | selective drug sensitivity score (PF-382) | selective drug sensitivity score (KASUMI-10) | selective drug sensitivity score (CCRF-HSB2) |
| --- | --- | --- | --- |
| CCCCNc1ncc(C(=O)NCc2ccc(-n3ccnc3)cc2)c(NC2CCC(O)CC2)n1 (centres undefined) [UNC2881] (top concentration 2500 nM) | 0 | 4.9 | 0 |
| CN1C(=O)N[C@H](Cc2c[nH]c3c(Cl)cccc23)C1=O [Necrostatin_2] (top concentration 10000 nM) | -0.08 | -0.08 | -0.08 |
| O=C(O)CCCCC(CCSCc1ccccc1)SCc1ccccc1 (centres undefined) [Devimistat (CPI-613)] (top concentration 10000 nM) | 0 | 0 | 0.3 |
| COc1cc2c(NC3CCN(C(C)C)CC3)nc(C3CCCCC3)nc2cc1OCCCN1CCCC1 [UNC0638] (top concentration 10000 nM) | -0.54 | -3.34 | 0.16 |
| Nc1nc(Nc2ccc3c(c2)CC[C@@H](N2CCCC2)CC3)nn1-c1cc2c(nn1)-c1ccccc1CCC2 [BGB324] (top concentration 10000 nM) | 0.32 | 0.32 | 2.32 |
| Cc1ccc(-c2cc(C(F)(F)F)nn2-c2ccc(S(N)(=O)=O)cc2)cc1 [Celecoxib] (top concentration 10000 nM) | 0.24 | -0.06 | -0.06 |
| CC(=O)O[C@@]12CO[C@@H]1C[C@H](O)[C@@]1(C)C(=O)[C@H](O)C3=C(C)[C@@H](OC(=O)[C@H](O)[C@@H](NC(=O)OC(C)(C)C)c4ccccc4)C[C@@](O)([C@@H](OC(=O)c4ccccc4)[C@H]21)C3(C)C [Docetaxel] (top concentration 1000 nM) | 10.5 | 14.6 | 19.3 |
| CN1CC[C@@H](NC(=O)Nc2ccc(C#N)cc2)C[C@@H]1c1nc2ccccc2[nH]1 [Glasdegib] (top concentration 1000 nM) | 0 | 0 | 0 |
| O=C1CCC(N2C(=O)c3ccccc3C2=O)C(=O)N1 (centres undefined) [Thalidomide] (top concentration 10000 nM) | -0.14 | -0.14 | -0.14 |
| CCC1(c2ccc(N)cc2)CCC(=O)NC1=O (centres undefined) [Aminoglutethimide] (top concentration 10000 nM) | 0 | 0 | 0 |
| O=C(O)c1ccc(CN2CCC(CN[C@@H]3C[C@H]3c3ccccc3)CC2)cc1 (top concentration 100000 nM) | -0.42 | -0.62 | -0.12 |
| CCS(=O)(=O)N1CC(CC#N)(n2cc(-c3ncnc4[nH]ccc34)cn2)C1 [Baricitinib] (top concentration 2500 nM) | -1.94 | -1.94 | -1.94 |
| CC1(C)C(C(=O)Nc2ccc(S(=O)(=O)c3ccc(NC(=O)C4C(C)(C)C4(C)C)cc3)cc2)C1(C)C [BRD7116] (top concentration 10000 nM) | 0.36 | 0.86 | 0.16 |
| CCCCCCCCc1ccc(CCC(N)(CO)CO)cc1 [Fingolimod] (top concentration 10000 nM) | -0.62 | -0.72 | 0.48 |
| CN1CCN(C(=O)c2ccc3cc(CCNc4ncnc5ccc(C#N)cc45)ccc3c2)CC1 [Senexin_B] (top concentration 1000 nM) | -0.1 | 4.5 | 3.8 |
| O=C(Nc1cnn2ccc(N3CCC[C@@H]3c3cc(F)ccc3F)nc12)N1CC[C@H](O)C1 [Larotrectinib] (top concentration 1000 nM) | -0.62 | -0.62 | -0.62 |
| O=C(O)CC1CC(c2ccccc2)=NO1 (centres undefined) [VGX-1027] (top concentration 10000 nM) | -0.04 | -0.04 | -0.04 |
| CCS(=O)(=O)Nc1ccc(Oc2ccc(F)cc2F)c(-c2cn(C)c(=O)c3[nH]ccc23)c1 [Mivebresib] (top concentration 10000 nM) | 8 | 10.9 | 1.3 |
| CCN1CCN(c2ccc(Nc3cc(N(C)C(=O)Nc4c(Cl)c(OC)cc(OC)c4Cl)ncn3)cc2)CC1 [Infigratinib] (top concentration 1000 nM) | 0 | 0 | 0 |

| SMILES | selective drug sensitivity score (PF-382) | selective drug sensitivity score (KASUMI-10) | selective drug sensitivity score (CCRF-HSB2) |
| --- | --- | --- | --- |
| CCc1c(C(=O)C(N)=O)c2c(OCC(=O)O)cccc2n1Cc1ccccc1 [Varespladib] (top concentration 10000 nM) | -0.84 | -0.84 | 0.36 |
| CC(C)C[C@H](NC(=O)[C@@H](COC(C)(C)C)NC(=O)[C@H](Cc1ccc(O)cc1)NC(=O)[C@H](CO)NC(=O)[C@H](Cc1c[nH]c2ccccc12)NC(=O)[C@H](Cc1cnc[nH]1)NC(=O)[C@@H]1CCC(=O)N1)C(=O)N[C@@H](CCCNC(=N)N)C(=O)N1CCC[C@H]1C(=O)NNC(N)=O [Goserelin] (top concentration 10000 nM) | -0.06 | -0.06 | 0.04 |
| CN1CCN(C2CCN(C(=O)Nc3cc(Oc4ccc(NC(=O)C5(C(=O)Nc6ccc(F)cc6)CC5)c(F)c4)ccn3)CC2)CC1 [Golvatinib] (top concentration 2500 nM) | -0.14 | 3.26 | 2.96 |
| O=C1NC(=O)[C@@H](c2cn3c4c(cccc24)CCC3)[C@@H]1c1c[nH]c2ccccc12 [Tivantinib] (top concentration 1000 nM) | 2.78 | 1.98 | 3.58 |
| Clc1ccccc1C(c1ccccc1)(c1ccccc1)n1cccn1 [TRAM-34] (top concentration 1000 nM) | -0.08 | -0.08 | -0.08 |
| COc1cc(CCc2cc(NC(=O)c3ccc(N4CC(C)NC(C)C4)cc3)n[nH]2)cc(OC)c1 (centres undefined) [AZD4547] (top concentration 1000 nM) | -0.14 | 1.36 | -0.14 |
| O=C(NOCCO)c1ccc2cncn2c1Nc1ccc(I)cc1F [GDC-0623] (top concentration 2500 nM) | -3.3 | -3.4 | 0.8 |
| Cc1c2oc3c(C)ccc(C(=O)N[C@@H]4C(=O)N[C@H](C(C)C)C(=O)N5CCC[C@H]5C(=O)N(C)CC(=O)N(C)[C@@H](C(C)C)C(=O)O[C@@H]4C)c3nc-2c(C(=O)N[C@@H]2C(=O)N[C@H](C(C)C)C(=O)N3CCC[C@H]3C(=O)N(C)CC(=O)N(C)[C@@H](C(C)C)C(=O)O[C@@H]2C)c(N)c1=O [Dactinomycin] (top concentration 1000 nM) | 3.64 | 17.6 | 15.7 |
| C[C@@H]1CCN(C(=O)CC#N)C[C@@H]1N(C)c1ncnc2[nH]ccc12 [Tofacitinib] (top concentration 5000 nM) | -7.36 | -7.86 | -3.56 |
| CC(O)c1cc(C(=O)N[C@@H](C)Cn2ccc(-c3ccc(C#N)c(Cl)c3)n2)n[nH]1 (some centres undefined) [ODM-201] (top concentration 2500 nM) | 0.52 | -0.28 | 1.62 |
| O=C(NCc1ccncc1)C12CC3CC(C1)CC(c1ccc(Cl)cc1)(C3)C2 (top concentration 50000 nM) | 0.48 | 0.98 | 2.68 |
| Cc1cc2c(F)c(Oc3ncnn4cc(OC[C@@H](C)O)c(C)c34)ccc2[nH]1 [Brivanib] (top concentration 1000 nM) | 0.06 | -0.04 | -0.04 |
| CN(C)C(=O)c1ccc(S(=O)(=O)c2ccc(NC(=O)[C@@](C)(O)C(F)(F)F)c(Cl)c2)cc1 [AZD7545] (top concentration 10000 nM) | 3.1 | -0.2 | 1.3 |
| C[C@H]1CN(C2COC2)CCN1c1ccc(Nc2cc(-c3ccnc(N4CCn5c(cc6c5CC(C)(C)C6)C4=O)c3CO)cn(C)c2=O)nc1 [GDC-0853] (top concentration 1000 nM) | 0 | 0 | 0 |
| CCCCCCCCCCCCCCCCCCOP(=O)([O-])OC1CC[N+](C)(C)CC1 [Perifosine] (top concentration 2500 nM) | -0.36 | -0.36 | -0.36 |
| CC(=O)O[C@H]1C(=O)[C@@]2(C)[C@H]([C@H](OC(=O)c3ccccc3)[C@]3(O)C[C@H](OC(=O)[C@H](O)[C@@H](NC(=O)c4ccccc4)c4ccccc4)C(C)=C1C3(C)C)[C@]1(OC(C)=O)CO[C@@H]1C[C@@H]2O [Paclitaxel] (top concentration 1000 nM) | 13.2 | 11.5 | 18.8 |
| CC(O)(CS(=O)(=O)c1ccc(F)cc1)C(=O)Nc1ccc(C#N)c(C(F)(F)F)c1 (centres undefined) [Bicalutamide] (top concentration 10000 nM) | -1.38 | -1.68 | -1.28 |
| COc1cc(C)c(/C=C/C(C)=C/C=C/C(C)=C/C(=O)O)c(C)c1C [Acitretin] (top concentration 10000 nM) | -1.4 | -1.6 | 0 |
| C=CC[C@@H]1/C=C(\C)C[C@H](C)C[C@H](OC)[C@H]2O[C@@](O)(C(=O)C(=O)N3CCCC[C@H]3C(=O)O[C@H](/C(C)=C/[C@@H]3CC[C@@H](O)[C@H](OC)C3)[C@H](C)[C@@H](O)CC1=O)[C@H](C)C[C@@H]2OC [Tacrolimus] (top concentration 10000 nM) | 0.78 | -0.72 | 3.38 |
